Values joined by “and” are separate entries in the source; they are usually repeats but may differ in a detail not shown here. Equal values may be shown once. Toxic doses and inconclusive results are not listed.
Test system: L1210 leukemia ip in BDF1 mice, survival T/C
Assay: NCI In Vivo Anticancer Drug Screen. Data for tumor model L1210 Leukemia (intraperitoneal) in B6D2F1 (BDF1) mice
Settings: endpoint: mean survival time, higher = longer survival
How it was run: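 In this screen, tumor-bearing mice given compound are compared to those given vehicle, and their survival values are reported as a treated-to-control quotient.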

[1] = dose: 100.0 mg/kg/injection, schedule: Q01DX001 (ip), vehicle: saline
[2] = dose: 100.0 mg/kg/injection, schedule: Q01DX009 (ip), vehicle: saline with Tween-80
[3] = dose: 200.0 mg/kg/injection, schedule: Q01DX001 (ip), vehicle: saline
[4] = dose: 400.0 mg/kg/injection, schedule: Q01DX001 (ip), vehicle: saline
[5] = dose: 25.0 mg/kg/injection, schedule: Q01DX009 (ip), vehicle: saline with Tween-80
[6] = dose: 50.0 mg/kg/injection, schedule: Q01DX009 (ip), vehicle: saline with Tween-80

Cc1ccc(S(=O)(=O)OCC2C3C=CC(c4ccccc43)C2COS(=O)(=O)c2ccc(C)cc2)cc1 (configuration not stated)
T/C (dose: 75.0 mg/kg/injection, schedule: Q01DX009 (ip), vehicle: saline with Tween-80): 96 % of control
T/C (dose: 150.0 mg/kg/injection, schedule: Q01DX009 (ip), vehicle: saline with Tween-80): 91 % of control
T/C (dose: 300.0 mg/kg/injection, schedule: Q01DX009 (ip), vehicle: saline with Tween-80): 90 % of control

C=CN1CCCC1=O (tested in a mixture with another compound)
T/C [1]: 101 % of control [middle of 4 runs]
T/C [2]: 92 % of control and 97 % of control
T/C [3]: 101 % of control [middle of 4 runs]
T/C (dose: 200.0 mg/kg/injection, schedule: Q01DX009 (ip), vehicle: saline with Tween-80): 93 % of control and 100 % of control
T/C [4]: 101 % of control and 89 % of control and 98 % of control
T/C (dose: 400.0 mg/kg/injection, schedule: Q01DX009 (ip), vehicle: saline with Tween-80): 93 % of control and 96 % of control

Cc1ccc(NC(=O)c2cc([N+](=O)[O-])cc([N+](=O)[O-])c2)cc1Cl
T/C (dose: 100.0 mg/kg/injection, schedule: Q01DX009 (ip), vehicle: Klucel (hydroxypropylcellulose) (HPC)): 96 % of control
T/C (dose: 200.0 mg/kg/injection, schedule: Q01DX009 (ip), vehicle: Klucel (hydroxypropylcellulose) (HPC)): 100 % of control
T/C (dose: 400.0 mg/kg/injection, schedule: Q01DX009 (ip), vehicle: Klucel (hydroxypropylcellulose) (HPC)): 88 % of control

CC(C)(C)CC(C)(C)N=C=S
T/C [5]: 100 % of control
T/C [6]: 94 % of control
T/C [2]: 96 % of control and 97 % of control

O=C(O)C1(C(=O)O)CCC1.[NH2-].[NH2-].[Pt+2]
T/C (dose: 2.0 mg/kg/injection, schedule: Q01DX009 (ip), vehicle: saline): 97 % of control
T/C (dose: 4.0 mg/kg/injection, schedule: Q01DX001 (ip), vehicle: saline): 100 % of control
T/C (dose: 4.0 mg/kg/injection, schedule: Q01DX009 (ip), vehicle: saline): 100 % of control
T/C (dose: 8.0 mg/kg/injection, schedule: Q01DX001 (ip), vehicle: saline): 100 % of control
T/C (dose: 8.0 mg/kg/injection, schedule: Q01DX009 (ip), vehicle: saline): 108 % of control
T/C (dose: 16.0 mg/kg/injection, schedule: Q01DX001 (ip), vehicle: saline): 102 % of control
T/C (dose: 16.0 mg/kg/injection, schedule: Q01DX009 (ip), vehicle: saline): 119 % of control
T/C (dose: 25.0 mg/kg/injection, schedule: Q04DX003 (ip), vehicle: saline): 110 % of control and 113 % of control
T/C (dose: 64.0 mg/kg/injection, schedule: Q01DX009 (ip), vehicle: saline): 171 % of control
T/C (dose: 100.0 mg/kg/injection, schedule: Q04DX003 (ip), vehicle: saline): 154 % of control and 176 % of control
T/C (dose: 128.0 mg/kg/injection, schedule: Q01DX001 (ip), vehicle: saline): 152 % of control
T/C (dose: 200.0 mg/kg/injection, schedule: Q04DX003 (ip), vehicle: saline): 97 % of control and 105 % of control

O=C(NCCO)Nc1cccc(Cl)c1
T/C (dose: 100.0 mg/kg/injection, schedule: Q04DX002 (ip), vehicle: saline): 100 % of control
T/C (dose: 200.0 mg/kg/injection, schedule: Q04DX002 (ip), vehicle: saline): 100 % of control
T/C (dose: 400.0 mg/kg/injection, schedule: Q04DX002 (ip), vehicle: saline): 111 % of control

CCOC(=O)C1(C(=O)OCC)CCC2Nc3cc4c(cc3C(=O)N21)OCO4 (configuration not stated)
T/C (dose: 12.5 mg/kg/injection, schedule: Q04DX003 (ip), vehicle: Klucel (hydroxypropylcellulose) (HPC)): 99 % of control
T/C (dose: 25.0 mg/kg/injection, schedule: Q04DX003 (ip), vehicle: Klucel (hydroxypropylcellulose) (HPC)): 100 % of control
T/C (dose: 50.0 mg/kg/injection, schedule: Q04DX003 (ip), vehicle: Klucel (hydroxypropylcellulose) (HPC)): 96 % of control

CC(=O)OCC1OC(Sc2nc3ncnc(N)c3[nH]2)C(OC(C)=O)C(OC(C)=O)C1OC(C)=O (configuration not stated)
T/C [1]: 104 % of control
T/C [3]: 102 % of control
T/C [4]: 97 % of control

O=NN(CCCl)C(=O)N(C1CCCCC1)C1CCCCC1
T/C (dose: 177.0 mg/kg/injection, schedule: Q01DX009 (ip), vehicle: carboxymethylcellulose (CMC)): 121 % of control
T/C (dose: 400.0 mg/kg/injection, schedule: Q01DX009 (ip), vehicle: carboxymethylcellulose (CMC)): 117 % of control
T/C (dose: 600.0 mg/kg/injection, schedule: Q01DX009 (ip), vehicle: carboxymethylcellulose (CMC)): 166 % of control

S=c1nccc[nH]1
T/C [5]: 103 % of control
T/C (dose: 25.0 mg/kg/injection, schedule: Q04DX002 (ip), vehicle: saline with Tween-80): 93 % of control
T/C [6]: 105 % of control
T/C (dose: 50.0 mg/kg/injection, schedule: Q04DX002 (ip), vehicle: saline with Tween-80): 107 % of control
T/C (dose: 100.0 mg/kg/injection, schedule: Q04DX002 (ip), vehicle: saline with Tween-80): 96 % of control

CC1([N+](=O)[O-])COP(=O)(NCCCN2CCOCC2)OC1 (configuration not stated)
T/C (dose: 100.0 mg/kg/injection, schedule: Q01DX001 (ip), vehicle: carboxymethylcellulose (CMC)): 97 % of control
T/C (dose: 200.0 mg/kg/injection, schedule: Q01DX001 (ip), vehicle: carboxymethylcellulose (CMC)): 97 % of control
T/C (dose: 400.0 mg/kg/injection, schedule: Q01DX001 (ip), vehicle: carboxymethylcellulose (CMC)): 97 % of control
